Laboratory results: PMC8750417, “Intracellular Amplifiers of Reactive Oxygen Species Affecting Mitochondria as Radiosensitizers” (Cancers, 2021)
Where two headings read alike, the source gives them in different places.

What was measured:
SAS cells [1] = assay: Clonogenic assay (colony formation), SAS; type: cell-based, human; details: for Relative clonogenic survival: 48 h exposure, untreated control = 1
Method: (§1) Optimization of concentration of prodrugs and controls / clonogenic assay The clonogenic survival assay is a classical approach to monitor radioresponse and drug- induced radiosensitization in cancer cells. We therefore initially determined whether the supposedly non -toxic drug concentrations defined for combinatorial treatment testing affect single cell colony formation capacity. For this pu rpose, exponentially growing SAS and FaDu cells were dissociated, single cell suspensions were prepared in standard DMEM and seeded in 6 -well plates at […]
(§2) defined low density (150-300 cells in 1 ml per well). After 8 h of incubation to allow cell adherence, 50% of the supernatant was exchanged by media containing the respective prodrugs at 2x concentration and exposed for 48 h. Treatment was then terminated by medium removal, and cells were allowed to grow for a period of ≥5-6 cell divisions estimated from the cell line-specific doubling times of the respective untreated controls (~7 days for SAS and ~10 days for FaDu cells). Control cells were always handled in parallel to the treated cells and thus exposed to the corresponding DMSO concentration(s). After the defined growth intervals, cells were fixed, stained and colonies of >50 cells were manually counted at low magnification to calculate plating efficiencies as the number of counted colonies relative to the number of seeded cells. Drug effect on clonogenic survival was then estimated by normalizing the colony formation of control cells to 1 (Table S9). […]

A2780 cells = assay: Organelle-specific staining in A2780 cells (R123 MMP, AO lysosomes, ER, Golgi); type: cell-based, human; details: for effect on lysosomes (LY), endoplasmic reticulum (ER) and Golgi (GO) staining: A2780, 30 µM, 1-4 h; for MMP compared to the MMP of untreated cells: R123
Method: Effect of prodrugs and controls on cellular organelles in A2780 cells: lysosomes (LY), endoplasmic reticulum (ER), Golgi (G) and mitochondria (Mit) (Figures 3, S56) A2780 cells were seeded in RPMI 1640 medium containing 5% FBS, 1% L-glutamine and 1% penicillin/streptomycin in a 24-well microtiter plate (total volume 0.5 mL) at a density of 200 cells/µL one day before the experiment. On the day of the experiment, prodrugs (“LY/ER/G”-experiments: stock solution - 3 mM, 5 µL, final concentration: 30 µM; “Mit”- experiment: stock solutions - 0.5, 1 and 3 mM, 5 µL, final concentrations: 5, 10, 30 µM) or carrier only (DMSO, 1%, v/v) were added to cells and incubated for 1, 4 and 24 h in a dark chamber filled with CO2 (5 %) at 37 °C. The cells were washed twice with DPBS buffer and the medium was replaced with HBSS (Hanks' Balanced Salt solution, 500 μL).
Stock solutions of different dyes (5 µL) were added: concentrations of the stock solutions were 4 mg/L for Acridine orange (AO), 10 mg/L for Rhodamine 123 (R123), 1 µM for ER-Tracker-Green (ERG) and 10 µM for Golgi-Staining-Green (GO). […]
Final concentrations of solutions were 40 µ g/L for AO, 100 µ g/L for R123, 0.01 µ M for ERG and 0.1 µ M for GO. The cells were incubated in the dark chamber filled with CO 2 (5%) at 37 ° C for 20 min. Afterwards the supernatant was removed, the cells were washed with DPBS buffer twice and detached from the culture dish using t rypsin/EDTA (0.025%/0.01%, v/v, 200 µ L). Next, the cells were re -suspended in fresh medium. Finally, the fluorescence of live cells (the number of total events was 5000, λex = 488 nm, λ em = 530 nm) in the suspensions was determined by using flow cytometry (N=3, Figure 3, S56).
Figure S56. Effects of the prodrugs on mitochondria membrane potential (MMP) of A2780 cell lines after 1 -48 h incubation. *: p< 0.05; **: p< 0.01; ***: p< 0.001 , Student’s t test. […]
reference (labelled on the plot). […]

human fibroblasts (HF) = assay: Cytotoxicity MTT assay, human fibroblasts; type: cell-based; details: read-out: 50% cell survival (EC50)
Method: Study of synergy of prodrugs with radiotherapy for SAS and FaDu cells
(§3) Optimization of concentration of prodrugs and controls / MTT assay
(§4) The MTT assay was also applied to assess the impact of various drugs (0.01-100 µM) on the viability of the two human head and neck squamous carcinoma cell (HNSCC) lines SAS and FaDu as well as retinal pigment epithelial ARPE-19 cells and human fibroblasts (HF). Cells were seeded into 96-well plates at concentrations of 4000 and 2000 cells per […]
(§5) h before exposure to the drugs. All drug dilutions were prepared from 20 mM stock solutions in DMSO. The final DMSO concentration was set to 0.5% in all sample s including control. After completion of the treatment, the wells were processed according to the routine MTT protocol as described above; the formazan absorbance was then measured on a Biotek Epoch Microplate Spectrophotometer at 590 nm and corrected for the background signal at 620 nm. N≥3 independent experiments were performed for each drug candidate, cell type and treatment interval. Cell survival was recorded as function of the drug concentration, and dose-response curves were fitted with the Boltzmann equation where appropriate. We calculated the half-maximal response (EC50) as well as the EC20 (80% survival) according to the line curve (see Tables S6-S8). EC20-values were used as a basis to select the compound-specific non-toxic drug concentrations for combination with radiotherapy.

[2] = n-octanol/water partition coefficient (logP) by RP-TLC; type: physicochemical
Method: Determination of n-octanol/water partition coefficients (LogP) […]
mixture of dichloromethane/CH3OH at proper concentrations. Commercially available […]
7.4) (6/4, v/v) was used. The solvent migration distance was around 4.5 cm. The plates […]
and its distance was manually measured. All measurements were done in at least triplicate and average values were used in further calculations. All experiments were performed at ambient temperature (22 ± 2 °C). […]

FaDu cells = assay: Clonogenic assay (colony formation), FaDu; type: cell-based, human; details: for Relative clonogenic survival: 48 h exposure, untreated control = 1
Method: as §1, §2

SAS cells [3] = assay: Cytotoxicity MTT assay, SAS; type: cell-based, human; details: for EC50: read-out: 50% cell survival (EC50)
Method: as §3, §4, §5

Compound | Relative clonogenic survival (SAS cells [1]; 25 µM) | effect on lysosomes (LY), endoplasmic reticulum (ER) and Golgi (GO) staining (A2780 cells) | EC50 (human fibroblasts (HF); 24h) | EC50 (human fibroblasts (HF); 48h) | Relative clonogenic survival (FaDu cells; 25 µM) | 80% cell survival (EC20) (SAS cells [3]; 24h) | EC50 (SAS cells [3]; 24h) | 80% cell survival (EC20) (SAS cells [3]; 48h) | EC50 (SAS cells [3]; 48h) | also measured
CC1(C)OB(c2ccc(COC(=O)N(Cc3cn(Cc4ccc(Cn5cc(Cc6ccccc6)nn5)cc4)nn3)[c-]3cccc3)cc2)OC1(C)C.[Fe+2].c1cc[cH-]c1 [2c] | 0.70 ± 0.10 | affected neither LY nor ER nor GO | > 50 µM | > 50 µM | 0.20 ± 0.08 | > 50 µM | > 50 µM | 10.4 ± 6.8 µM | > 50 µM | Relative clonogenic survival (SAS cells [1]; 10 µM): 0.78 ± 0.13; growth of colonies reduced to (SAS cells [1]; 25 µM): 70 ± 10%; MMP compared to the MMP of untreated cells (A2780 cells; A2780, 1 h incubation): 69 ± 11%; MMP compared to the MMP of untreated cells (A2780 cells; A2780, 24 h incubation): 30 ± 5%; logP (Hydrolyzed Prodrug) ([2]; n-octanol/water partition coefficient of the hydrolyzed boronic acid (_BA) form of the prodrug named): 3.23 ± 0.11; logP (Prodrug) ([2]; n-octanol/water partition coefficient of the intact prodrug (or control 2c_c), RP-TLC, MOPS pH 7.4): 5.37 ± 0.15; Relative clonogenic survival (FaDu cells; 10 µM): 0.86 ± 0.13; growth of colonies reduced to (FaDu cells; 25 µM): 20 ± 8%
CC1(C)OB(c2ccc(COC(=O)N(Cc3cccc(CN4CCCCC4)c3)[c-]3cccc3)cc2)OC1(C)C.[Fe+2].c1cc[cH-]c1 [5b] |  | strongly affected lysosomes | 35.5 ± 14.9 µM | 20.8 ± 4.6 µM |  | 7.0 ± 1.5 µM | 18.7 ± 4.7 µM | 2.4 ± 1.3 µM | 5.8 ± 0.8 µM | Relative clonogenic survival (SAS cells [1]; 0.5 µM): 0.96 ± 0.06; Relative clonogenic survival (SAS cells [1]; 1 µM): 0.76 ± 0.06; Relative clonogenic survival (SAS cells [1]; 2.5 µM): 0.36 ± 0.15; colony formation reduced to (SAS cells [1]; 10-fold lower dose than 25 µM): 36 ± 15%; Relative clonogenic survival (FaDu cells; 0.5 µM): 0.71 ± 0.07; Relative clonogenic survival (FaDu cells; 1 µM): 0.75 ± 0.11; Relative clonogenic survival (FaDu cells; 2.5 µM): 0.36 ± 0.10; colony formation reduced to (FaDu cells; 10-fold lower dose than 25 µM): 36 ± 10%
CCOC(=O)CCCCCn1cc(CN(C(=O)OCc2ccc(B3OC(C)(C)C(C)(C)O3)cc2)[c-]2cccc2)nn1.[Fe+2].c1cc[cH-]c1 [compound 1] |  |  |  |  |  |  |  |  |  | logP (Hydrolyzed Prodrug) [2]: 2.83 ± 0.07; logP (Prodrug) ([2]; pH 7.4): 4.87 ± 0.05
[Fe+2].c1cc[cH-]c1.c1cc[cH-]c1 [compound 6, ferrocene] | 0.88 ± 0.10 |  | > 50 µM | > 50 µM | 0.99 ± 0.08 | > 50 µM | > 50 µM | > 50 µM | > 50 µM | 
